Patent publication US10188743B2, “Cytisine-linked isoflavonoid antineoplastic agents for the treatment of cancer” (UNIVERSITY OF KENTUCKY RESEARCH FOUNDATION, priority 2016, dated 2019)

Key:
p70 = p70 phosphorylation, mTor pathway (Western blotting); format: cell-based; conditions: PC-3 and LS174T cells
Method: (§1) Biochemistry. Western blotting: Cells were lysed in the appropriate volume of lysis buffer (50 mM HEPES, 100 mM NaCl, 2 mM EDTA, 1% glycerol, 50 mM NaF, 1 mM Na3VO4, 1% Triton X-100, with protease inhibitors). The following antibodies were used: HSD17B4 (GeneTex, GTX103864), AMPK (Cell Signaling, 2532), pAMPK (Cell Signaling, 2535), ACC (Cell Signaling, 3676), pACC (Cell Signaling, 11818), p^70 (Cell Signaling, 2708), p-p^70 (Cell Signaling, 9914), S6 (Cell Signaling, 2217), pS6 (Cell Signaling, 4858), MCCA (GeneTex, GTX110062), tubulin (Hybridoma Bank, E7), Actin (Sigma, A1978), His-tag (BD Pharmingen, 552564).

[1] = system: LS174T colon cancer cells; experiment: Fatty acid analysis of treated cells; format: cell-based
Method: Fatty acid analysis: Free and total fatty acids (after saponification) were prepared as reported previously (Spencer et al. Diabetes 62(5):1709-1717) converted to N-(4-aminomethylphenyl)pyridinium derivatives (Bollinger et al. J Lipid Res 54(12):3523-3530) and quantitated HPLC electrospray ionization tandem mass spectrometry with quantitation accomplished using exogenously added heptadecanoic acid as a recovery standard and reference to offline calibrations generated using authentic fatty acid standards.

DLD1 colon cancer cells = experiment: Seahorse XF assay; format: cell-based
From the text: (§2) We further characterized the effects of cytisine-linked isoflavonoid 10c on energy metabolism using a Seahorse XF assay (FIG. 4D-F) that measured oxygen consumption rate (OCR), which was an indicator of mitochondrial respiration, and measured extracellular acidification rate (ECAR), which was largely the result of glycolysis. […] Similar results were found in DLD-1 colon cancer cells and PC-3 prostate cancer cells (FIGS. 8 and 9). These OCR findings were consistent with the prior evaluation of these cytisine-linked isoflavonoids that targeted the hydratase activity in HSD17B4, inhibited VLCFA beta-oxidation, depressed acetyl CoA generation, decreased the ratio of ATP/AMP, and triggered AMPK activation (FIG. 5).
(§3) Seahorse assay: 3×10^4 cells were seeded in XF96 Cell Culture microplate (80 μL of 3.75×10^5 cells/m:). On the next day, cells were treated with DMSO or inhibitors and analyzed using the Seahorse analyzer in Redox Metabolism Shared Resource Facility (RM SRF) at the Markey Cancer Center.

[2] = system: PC-3 prostate cancer cells; experiment: Seahorse XF assay; format: cell-based; conditions: PC-3 cells
From the text: as §2, §3

[3] = target: T1, α,β-dehydrogenase activity of HSD17B4 (Homo sapiens, UniProt P51659); experiment: HSD17B4 dehydrogenase assay (NADH readout); format: biochemical
T1 construct: His-tag; made in house; host or cells: E. coli BL21 (pET28)
T1 sequence (P51659 1-736): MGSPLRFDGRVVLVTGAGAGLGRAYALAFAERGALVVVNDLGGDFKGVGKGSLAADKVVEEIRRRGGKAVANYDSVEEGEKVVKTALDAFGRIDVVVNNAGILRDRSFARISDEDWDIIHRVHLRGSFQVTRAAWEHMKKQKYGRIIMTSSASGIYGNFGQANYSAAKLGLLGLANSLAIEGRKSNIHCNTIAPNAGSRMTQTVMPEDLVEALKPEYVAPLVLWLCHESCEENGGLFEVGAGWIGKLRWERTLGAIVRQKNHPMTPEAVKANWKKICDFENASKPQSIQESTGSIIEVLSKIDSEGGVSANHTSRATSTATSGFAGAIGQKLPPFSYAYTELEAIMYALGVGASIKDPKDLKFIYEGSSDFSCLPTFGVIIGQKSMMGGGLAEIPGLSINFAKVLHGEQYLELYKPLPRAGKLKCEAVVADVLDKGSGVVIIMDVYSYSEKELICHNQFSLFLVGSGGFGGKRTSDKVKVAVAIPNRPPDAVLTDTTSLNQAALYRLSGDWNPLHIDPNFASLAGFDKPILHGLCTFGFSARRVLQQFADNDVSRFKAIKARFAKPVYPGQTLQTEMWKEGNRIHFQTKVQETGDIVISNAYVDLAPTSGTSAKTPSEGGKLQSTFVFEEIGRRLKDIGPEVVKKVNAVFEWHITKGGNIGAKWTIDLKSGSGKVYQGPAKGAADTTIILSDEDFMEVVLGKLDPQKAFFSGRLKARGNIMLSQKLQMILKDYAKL
From the text: We acquired further evidence along these lines through studies using the N-terminal α,β-dehydrogenase and C-terminal hydratase fragments of HSD17B4 as well as the full-length protein. We evaluated the α,β-dehydrogenase activity using DL-3-hydroxylbutyryl-CoA as a substrate and the conversion of NAD^+ to NADH as a readout. We concomitantly measured the hydratase activity using crotonoyl-CoA as a substrate and the diminished ultraviolet absorption of the α,β-unsaturated thioester chromophore as readout. The full-length protein, as expected, had both enzyme activities (FIGS. 7A and 7B). The C-terminal-truncated fragments N318 and N634 but not the N-terminal-truncation fragment C919 had α,β-dehydrogenase activity (FIG. 7A). The C-terminal fragment N634 and the N-terminal fragment C919, but not the C-terminal fragment N318, had hydratase activity (FIG. 7B), as summarized in FIG. 3A.
The enzymatic activities of HSD17B4 were analyzed using the method reported by Novikov et al. (J. Biol. Chem., 1994, 269, 27125). […] The reaction was quantified by measuring the fluorescent product NADH (excitation: 340 nm; emission 460 nm). […] The reaction was quantified by measuring the remaining substrate using absorbance at 280 nm.

[4] = system: acetyl CoA carboxylase (ACC); experiment: ACC phosphorylation / activation downstream of AMPK (Western blotting); format: cell-based; conditions: PC-3 and LS174T cells
Method: as §1

With `O=c1c(-c2ccc(Cl)cc2)coc2cc(OCCN3C[C@@H]4C[C@@H](C3)c3cccc(=O)n3C4)ccc12` [Compound 10c, (1 S,5S)-3-(2-((3-(4-chlorophenyl)-4-oxo-4H-chromen-7-yl)oxy)ethyl)-3,4,5,6-tetrahydro-1H-1,5-methanopyrido[1,2-a][1,5]diazocin-8(2H)-one] the “phosphorylation of p70” value (p70) was “inhibited the phosphorylation”, the fatty acid levels [1] was “reduced the levels of a number of fatty acids” and the ATP production (DLD1 colon cancer cells) was “reduced”. For the same compound, the respiration rate (DLD1 colon cancer cells) was “reduced respiration rate”, the respiration rate [2] was “reduced respiration rate” and the “effect on α,β-dehydrogenase activity” value [3] was “no effect”. The ACC phosphorylation [4] was “induced appreciable ACC phosphorylation”.
